Results from patent US20190016689A1, “NOVEL FLUORINATED QUINAZOLINE DERIVATIVES AS EGFR INHIBITORS” (TRILLIUM THERAPEUTICS INC., priority 2016, published 2019).

Columns and labels:
[1] = Chemical stability in simulated intestinal fluid; format: physicochemical; settings: 37° C.
Procedure: For SIF: Dissolve 6.8 g of KH2PO4 into about 500 mL ultrapure water and adjust the solution to a pH 6.8 with 0.1 M NaOH. Dissolve 10 g of trypsin into ultrapure water. Then the two solutions are mixed well and diluted with ultrapure water to 1000 mL.
The working solutions of test compound and control compound chlorambucil are prepared in DMSO at the concentration of 500 μM.
Place 2 μL of working solution of each sample in order into their proper 96-well rack. Add 198 μL of pre-incubated PBS pH 7.4 or simulated intestinal fluid into each vial of the cap-less Sample plate to achieve a final concentration of […]. The assay is performed in duplicate. Seal using a molded PTFE/Silicone plug. Then transfer the Sample plate to the Eppendorf Thermomixer Comfort plate shaker and shake at 37° C. at 1100 RPM. Take one of the glass vials at designated time points including 0, 30, 60, 120 and 240 min. For each time point, the initiation of the reaction is staggered so all time points are terminated with 1000 μL of cold quench solution (acetonitrile containing internal standards (IS, 200 nM Labetalol, 100 nM Alprazolam and 2 μM Ketoprofen) at the same time. Vortex for 1 minute. Centrifuge the samples in plate at 3,220 g for 5 minutes at 4° C. Transfer 100 μL of the supernatant to a new plate. The supernatant may be diluted with 100 μL or 200 μL water according to the LC/MS signal response and peak shape. Mix well and analyze samples using LC/MS/MS.

CYP 1A2 = CYP 1A2 (Homo sapiens, UniProt P05177); experiment: CYP450 inhibition; format: in vitro ADME
Chain of CYP 1A2 (P05177 whole entry): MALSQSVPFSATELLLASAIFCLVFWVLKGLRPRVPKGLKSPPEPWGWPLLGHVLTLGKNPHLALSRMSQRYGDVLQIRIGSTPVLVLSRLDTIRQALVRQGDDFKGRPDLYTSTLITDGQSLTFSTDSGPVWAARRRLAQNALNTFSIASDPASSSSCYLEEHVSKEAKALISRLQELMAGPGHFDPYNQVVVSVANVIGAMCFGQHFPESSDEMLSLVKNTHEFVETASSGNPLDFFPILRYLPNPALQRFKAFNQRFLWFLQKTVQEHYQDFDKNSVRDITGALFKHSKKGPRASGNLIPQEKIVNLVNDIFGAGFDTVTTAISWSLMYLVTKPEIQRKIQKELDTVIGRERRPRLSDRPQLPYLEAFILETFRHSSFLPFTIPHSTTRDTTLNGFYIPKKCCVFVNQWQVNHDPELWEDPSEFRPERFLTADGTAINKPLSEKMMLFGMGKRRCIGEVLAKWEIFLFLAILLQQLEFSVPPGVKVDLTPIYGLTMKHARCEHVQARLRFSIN
Procedure: (§1) Prepare stock solutions of the test compound and positive control compounds described in Table 8 in DMSO at 0, 0.2, 1, 2, 10, 50, 200, 2000 and 10000 μM. Transfer 1 μL of the stock solutions to the Incubation Plate. The final concentrations of test compound or positive control compound are 0, 0.001, 0.005, 0.01, 0.05, 0.25, 1, 10 and 50 μM. All experiments are performed in duplicate.

CYP 2D6 = CYP 2D6 (Homo sapiens, UniProt P10635); experiment: CYP450 inhibition; format: in vitro ADME
Chain of CYP 2D6 (P10635 whole entry): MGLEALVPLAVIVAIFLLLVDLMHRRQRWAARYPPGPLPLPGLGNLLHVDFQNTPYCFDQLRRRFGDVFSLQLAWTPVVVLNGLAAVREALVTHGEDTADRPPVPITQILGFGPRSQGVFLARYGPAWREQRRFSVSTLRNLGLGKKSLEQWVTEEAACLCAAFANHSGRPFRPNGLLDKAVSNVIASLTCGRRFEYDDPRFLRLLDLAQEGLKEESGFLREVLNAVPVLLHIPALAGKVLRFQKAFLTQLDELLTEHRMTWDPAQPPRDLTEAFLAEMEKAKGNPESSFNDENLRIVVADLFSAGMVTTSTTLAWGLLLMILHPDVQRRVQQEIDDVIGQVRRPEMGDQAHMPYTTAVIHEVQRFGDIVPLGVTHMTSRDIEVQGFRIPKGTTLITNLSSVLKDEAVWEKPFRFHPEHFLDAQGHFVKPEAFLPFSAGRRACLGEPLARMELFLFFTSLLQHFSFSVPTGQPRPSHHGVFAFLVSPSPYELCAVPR
Procedure: as §1

CYP 2C9 = CYP 2C9 (Homo sapiens, UniProt P11712); experiment: CYP450 inhibition; format: in vitro ADME
Procedure: as §1

CYP 2C19 = CYP 2C19 (Homo sapiens, UniProt P33261); experiment: CYP450 inhibition; format: in vitro ADME
Chain of CYP 2C19 (P33261 whole entry): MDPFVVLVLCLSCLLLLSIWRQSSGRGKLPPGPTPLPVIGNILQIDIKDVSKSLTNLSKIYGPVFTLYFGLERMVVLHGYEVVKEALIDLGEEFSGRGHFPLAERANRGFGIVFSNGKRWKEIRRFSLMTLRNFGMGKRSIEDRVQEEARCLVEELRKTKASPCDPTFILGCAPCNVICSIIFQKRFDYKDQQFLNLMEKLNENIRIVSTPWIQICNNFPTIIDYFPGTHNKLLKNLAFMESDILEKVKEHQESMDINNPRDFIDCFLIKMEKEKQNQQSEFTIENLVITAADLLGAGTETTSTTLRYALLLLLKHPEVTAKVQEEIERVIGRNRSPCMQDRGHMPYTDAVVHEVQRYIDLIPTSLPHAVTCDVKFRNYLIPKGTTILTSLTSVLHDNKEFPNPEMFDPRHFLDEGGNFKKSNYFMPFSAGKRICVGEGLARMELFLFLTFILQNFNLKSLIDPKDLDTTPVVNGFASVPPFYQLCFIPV
Procedure: as §1

OVCAR-5 = experiment: NCI screening panel (SRB); format: cell-based; settings: Homo sapiens, OVCAR-5 (Ovarian), 48 h; for CC50: read-out: LC50 (the source's name)
EGFR (G719C) = EGFR (G719C) (Homo sapiens, UniProt P00533, G719C); experiment: Kinase assays, selectivity panel (qPCR); settings: read-out: % Control @ 300 nM
Chain of EGFR (G719C) (P00533 25-1210 G719C): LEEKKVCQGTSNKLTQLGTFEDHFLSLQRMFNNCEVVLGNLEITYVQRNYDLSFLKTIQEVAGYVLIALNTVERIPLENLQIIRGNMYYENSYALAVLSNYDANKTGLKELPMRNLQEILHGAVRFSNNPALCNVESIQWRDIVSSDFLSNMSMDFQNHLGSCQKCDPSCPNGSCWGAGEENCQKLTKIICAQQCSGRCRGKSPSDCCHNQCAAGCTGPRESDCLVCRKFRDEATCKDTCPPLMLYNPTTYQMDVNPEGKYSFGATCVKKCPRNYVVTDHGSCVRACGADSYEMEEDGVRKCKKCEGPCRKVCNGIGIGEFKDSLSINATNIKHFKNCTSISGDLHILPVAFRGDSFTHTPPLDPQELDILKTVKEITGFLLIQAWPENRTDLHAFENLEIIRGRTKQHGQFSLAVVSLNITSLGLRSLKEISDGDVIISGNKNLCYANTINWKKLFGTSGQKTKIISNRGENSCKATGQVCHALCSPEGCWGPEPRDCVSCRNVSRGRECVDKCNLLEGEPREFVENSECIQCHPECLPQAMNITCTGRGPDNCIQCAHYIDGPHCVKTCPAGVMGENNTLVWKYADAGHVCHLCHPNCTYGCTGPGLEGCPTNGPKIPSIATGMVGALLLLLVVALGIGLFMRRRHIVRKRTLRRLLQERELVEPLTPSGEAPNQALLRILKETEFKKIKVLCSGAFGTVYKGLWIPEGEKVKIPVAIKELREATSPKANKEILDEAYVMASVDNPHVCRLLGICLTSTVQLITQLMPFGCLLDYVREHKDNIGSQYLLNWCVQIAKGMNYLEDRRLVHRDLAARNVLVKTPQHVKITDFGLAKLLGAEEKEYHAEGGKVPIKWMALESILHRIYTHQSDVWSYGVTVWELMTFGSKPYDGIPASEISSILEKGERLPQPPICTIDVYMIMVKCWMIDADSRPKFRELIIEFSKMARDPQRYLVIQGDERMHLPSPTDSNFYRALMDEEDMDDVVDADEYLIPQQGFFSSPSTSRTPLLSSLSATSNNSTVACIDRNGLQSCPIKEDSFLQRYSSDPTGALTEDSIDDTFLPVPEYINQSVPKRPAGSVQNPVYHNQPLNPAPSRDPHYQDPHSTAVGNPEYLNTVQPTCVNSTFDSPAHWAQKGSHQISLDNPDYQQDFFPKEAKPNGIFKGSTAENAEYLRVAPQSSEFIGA

UACC-62 = experiment: NCI screening panel (SRB); format: cell-based; settings: Homo sapiens; UACC-62 (Melanoma), 48 h
MOLT-4 = experiment: NCI screening panel (SRB); format: cell-based; settings: Homo sapiens, MOLT-4 (Leukemia), 48 h; for CC50: read-out: LC50 (the source's name)
UO-31 = experiment: NCI screening panel (SRB); format: cell-based; settings: Homo sapiens, UO-31 (Renal), 48 h; for CC50: read-out: LC50 (the source's name)
COLO205 = experiment: NCI screening panel (SRB); format: cell-based; settings: Homo sapiens, COLO 205, COLO205 (Colon), 48 h; for CC50: read-out: LC50 (the source's name)
[2] = biological target: EGFR (L747-S752del, P753S) (Homo sapiens, UniProt P00533, DEL747-752/P753S); experiment: Kinase assays, selectivity panel (qPCR); settings: read-out: % Control @ 300 nM
Chain of EGFR (L747-S752del, P753S) (P00533 with tags, fused parts or gaps DEL747-752/P753S): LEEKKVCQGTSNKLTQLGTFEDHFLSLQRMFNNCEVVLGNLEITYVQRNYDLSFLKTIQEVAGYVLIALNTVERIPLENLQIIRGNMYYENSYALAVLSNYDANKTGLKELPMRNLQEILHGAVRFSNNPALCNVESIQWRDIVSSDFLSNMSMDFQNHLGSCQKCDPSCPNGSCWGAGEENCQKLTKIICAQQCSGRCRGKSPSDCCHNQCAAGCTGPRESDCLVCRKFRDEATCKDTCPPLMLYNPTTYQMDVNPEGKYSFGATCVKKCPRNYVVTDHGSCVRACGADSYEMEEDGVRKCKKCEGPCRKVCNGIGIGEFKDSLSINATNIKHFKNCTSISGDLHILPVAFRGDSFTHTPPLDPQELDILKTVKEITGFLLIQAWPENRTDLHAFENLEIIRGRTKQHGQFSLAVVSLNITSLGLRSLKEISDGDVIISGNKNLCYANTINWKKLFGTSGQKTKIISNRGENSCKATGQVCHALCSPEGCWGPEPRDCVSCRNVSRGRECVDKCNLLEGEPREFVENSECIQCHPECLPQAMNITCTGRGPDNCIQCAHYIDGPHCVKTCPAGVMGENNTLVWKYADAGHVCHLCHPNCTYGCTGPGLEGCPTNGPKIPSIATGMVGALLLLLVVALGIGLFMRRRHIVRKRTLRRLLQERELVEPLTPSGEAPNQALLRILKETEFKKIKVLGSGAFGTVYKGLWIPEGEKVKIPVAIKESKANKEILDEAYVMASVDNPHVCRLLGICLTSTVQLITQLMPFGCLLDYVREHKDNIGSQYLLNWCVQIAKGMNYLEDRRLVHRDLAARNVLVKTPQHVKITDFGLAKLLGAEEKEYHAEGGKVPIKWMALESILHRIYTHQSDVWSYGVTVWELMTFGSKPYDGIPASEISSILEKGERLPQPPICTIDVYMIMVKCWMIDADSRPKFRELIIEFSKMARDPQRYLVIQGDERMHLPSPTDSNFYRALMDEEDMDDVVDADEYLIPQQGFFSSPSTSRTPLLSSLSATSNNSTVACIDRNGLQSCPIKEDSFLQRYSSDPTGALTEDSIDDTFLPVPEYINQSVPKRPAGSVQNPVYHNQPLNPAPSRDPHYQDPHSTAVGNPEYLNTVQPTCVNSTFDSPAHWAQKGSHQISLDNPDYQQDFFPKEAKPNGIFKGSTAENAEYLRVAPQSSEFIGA

NCI/ADR-RES = experiment: NCI screening panel (SRB); format: cell-based; settings: Homo sapiens, NCI/ADR-RES (Ovarian), 48 h; for CC50: read-out: LC50 (the source's name)
EGFR (G719S) = EGFR (G719S) (Homo sapiens, UniProt P00533, G719S); experiment: Kinase assays, selectivity panel (qPCR); settings: read-out: % Control @ 300 nM
Chain of EGFR (G719S) (P00533 25-1210 G719S): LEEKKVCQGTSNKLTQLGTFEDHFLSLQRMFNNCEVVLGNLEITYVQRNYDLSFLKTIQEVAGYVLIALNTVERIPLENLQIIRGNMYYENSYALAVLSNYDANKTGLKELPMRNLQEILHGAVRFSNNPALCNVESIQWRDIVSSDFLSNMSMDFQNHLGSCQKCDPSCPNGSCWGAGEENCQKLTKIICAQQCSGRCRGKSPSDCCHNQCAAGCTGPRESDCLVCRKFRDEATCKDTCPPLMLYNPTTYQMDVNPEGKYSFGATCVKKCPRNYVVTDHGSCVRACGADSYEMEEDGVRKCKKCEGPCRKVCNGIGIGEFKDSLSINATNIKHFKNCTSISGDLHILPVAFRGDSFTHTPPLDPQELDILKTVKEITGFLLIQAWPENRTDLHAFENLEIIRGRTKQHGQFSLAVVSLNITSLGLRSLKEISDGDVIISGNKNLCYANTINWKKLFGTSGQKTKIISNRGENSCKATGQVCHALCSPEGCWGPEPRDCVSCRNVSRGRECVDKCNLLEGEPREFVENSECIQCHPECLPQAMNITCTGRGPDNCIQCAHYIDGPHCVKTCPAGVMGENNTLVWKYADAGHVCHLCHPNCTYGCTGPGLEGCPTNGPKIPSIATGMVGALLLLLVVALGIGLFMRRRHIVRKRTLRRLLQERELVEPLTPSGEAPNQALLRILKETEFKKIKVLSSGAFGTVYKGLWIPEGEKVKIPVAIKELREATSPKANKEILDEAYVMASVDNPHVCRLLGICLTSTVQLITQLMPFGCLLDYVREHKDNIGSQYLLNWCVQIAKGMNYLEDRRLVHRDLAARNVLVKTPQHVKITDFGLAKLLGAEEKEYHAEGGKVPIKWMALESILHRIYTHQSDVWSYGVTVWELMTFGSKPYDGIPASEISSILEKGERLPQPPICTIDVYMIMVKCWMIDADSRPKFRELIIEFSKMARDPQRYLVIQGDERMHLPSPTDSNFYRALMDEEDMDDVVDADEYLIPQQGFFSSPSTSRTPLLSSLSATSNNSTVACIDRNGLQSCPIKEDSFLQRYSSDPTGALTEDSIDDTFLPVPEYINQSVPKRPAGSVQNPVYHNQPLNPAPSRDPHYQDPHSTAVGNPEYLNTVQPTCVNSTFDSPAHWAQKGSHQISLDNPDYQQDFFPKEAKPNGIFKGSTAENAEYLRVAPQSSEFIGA

U251 = experiment: NCI screening panel (SRB); format: cell-based; settings: Homo sapiens, U-251, U251 (CNS), 48 h; for CC50: read-out: LC50 (the source's name)
HS578T = experiment: NCI screening panel (SRB); format: cell-based; settings: Homo sapiens, Hs-578T, HS578T (Breast), 48 h; for CC50: read-out: LC50 (the source's name)
SF-539 = experiment: NCI screening panel (SRB); format: cell-based; settings: Homo sapiens, SF-539 (CNS), 48 h; for CC50: read-out: LC50 (the source's name)
EGFR (T790M) = EGFR (T790M) (Homo sapiens, UniProt P00533, T790M); experiment: Kinase assays, selectivity panel (qPCR); settings: read-out: % Control @ 300 nM
[3] = system: EGFR (L747-T751del, Sins); experiment: Kinase assays, selectivity panel (qPCR)
SNB-75 = experiment: NCI screening panel (SRB); format: cell-based; settings: Homo sapiens, SNB-75 (CNS), 48 h; for CC50: read-out: LC50 (the source's name)
TK-10 = experiment: NCI screening panel (SRB); format: cell-based; settings: Homo sapiens, TK-10 (Renal), 48 h; for CC50: read-out: LC50 (the source's name)
MALME3-M = experiment: NCI screening panel (SRB); format: cell-based; settings: Homo sapiens, Malme-3M, MALME3-M (Melanoma), 48 h; for CC50: read-out: LC50 (the source's name)
MDA-MB-468 = experiment: NCI screening panel (SRB); settings: Homo sapiens, MDA-MB-468, 48 h; for CC50: read-out: LC50

SMILES	Remaining Percentage (%) in Simulated Intestinal Fluid ([1]; 120 min)	Remaining Percentage (%) in Simulated Intestinal Fluid ([1]; 240 min)	IC50 (CYP 1A2)	IC50 (CYP 2D6)	IC50 (CYP 2C9)	IC50 (CYP 2C19)	GI50 (OVCAR-5)	CC50 (OVCAR-5)	remaining activity at 0.3 µM (EGFR (G719C))	GI50 (UACC-62)	LC50 (UACC-62)	GI50 (MOLT-4)	CC50 (MOLT-4)	GI50 (UO-31)	CC50 (UO-31)	GI50 (COLO205)	CC50 (COLO205)	remaining activity at 0.3 µM [2]	GI50 (NCI/ADR-RES)	CC50 (NCI/ADR-RES)	further results
CN(C)C/C=C/C(=O)Nc1cc2c(Nc3ccc(F)c(Cl)c3)ncnc2cc1O[C@H]1CCOC1 [Afatinib, reference compound]	104.51%	104.31%	> 50 µM	28 µM	34.7 µM	47.8 µM	–	–	–	–	–	–	–	–	–	–	–	–	–	–	–
CN(C)C/C=C/C(=O)Nc1cc2c(Nc3cccc(Cl)c3F)ncnc2cc1OCCOC(F)F.O=C(O)/C=C\C(=O)O [Example I-5-MA, (E)-N-[4-(3-chloro-2-fluoro-anilino)-7-[2-(difluoromethoxy)ethoxy]quinazolin-6-yl]-4-(dimethylamino)but-2-enamide dimaleic acid salt]	97.51%	91.51%	> 50 µM	25.7 µM	30 µM	29.1 µM	–	–	–	–	–	–	–	–	–	–	–	–	–	–	–
CN(C)C/C=C/C(=O)Nc1cc2c(Nc3ccc(F)c(Cl)c3F)ncnc2cc1OCCOC(F)F.O=C(O)/C=C\C(=O)O.O=C(O)/C=C\C(=O)O [Example I-9-MA, (E)-N-[4-(3-chloro-2,4-difluoro-anilino)-7-[2-(difluoromethoxy)ethoxy]quinazolin-6-yl]-4-(dimethylamino)but-2-enamide di-maleic acid salt]	–	–	–	–	–	–	0.141 µM	47.9 µM	1.1%	1.49 µM	9.95 µM	0.849 µM	47.5 µM	< 0.01 µM	14.6 µM	1.23 µM	31.7 µM	2.8%	0.839 µM	> 100 µM	remaining activity at 0.3 µM (EGFR (G719S)): 0.15%; GI50 (U251): 2.17 µM; CC50 (U251): 29.6 µM; GI50 (HS578T): 1.24 µM; CC50 (HS578T): > 100 µM; GI50 (SF-539): 1.06 µM; CC50 (SF-539): 9.52 µM; remaining activity at 0.3 µM (EGFR (T790M)): 0.1%; % Control @ 300 nM [3]: 8.6%; GI50 (SNB-75): 0.129 µM; CC50 (SNB-75): 23.6 µM; GI50 (TK-10): < 0.01 µM; CC50 (TK-10): 21.8 µM; GI50 (MALME3-M): 1.42 µM; CC50 (MALME3-M): 6.97 µM; GI50 (MDA-MB-468): < 0.01 µM; CC50 (MDA-MB-468): 0.701 µM
O=C(/C=C/CN1CCCCC1)Nc1cc2c(Nc3ccc(F)c(Cl)c3F)ncnc2cc1OCCOC(F)F.O=C(O)/C=C\C(=O)O.O=C(O)/C=C\C(=O)O [Example I-10-MA, (E)-N-[4-(3-chloro-2,4-difluoro-anilino)-7-[2-(difluoromethoxy)ethoxy]quinazolin-6-yl]-4-(1-piperidyl)but-2-enamide di-maleic acid salt]	–	–	–	–	–	–	0.776 µM	67.1 µM	0%	1.79 µM	20.5 µM	1.12 µM	98.4 µM	0.0134 µM	39.1 µM	1.74 µM	> 100 µM	2.5%	1 µM	> 100 µM	remaining activity at 0.3 µM (EGFR (G719S)): 0%; GI50 (U251): 2.17 µM; CC50 (U251): 40.7 µM; GI50 (HS578T): 1.41 µM; CC50 (HS578T): > 100 µM; GI50 (SF-539): 1.5 µM; CC50 (SF-539): 14.3 µM; remaining activity at 0.3 µM (EGFR (T790M)): 0.75%; % Control @ 300 nM [3]: 0%; GI50 (SNB-75): 0.274 µM; CC50 (SNB-75): 31 µM; GI50 (TK-10): < 0.01 µM; CC50 (TK-10): 35.1 µM; GI50 (MALME3-M): 1.45 µM; CC50 (MALME3-M): 7.44 µM; GI50 (MDA-MB-468): < 0.01 µM; CC50 (MDA-MB-468): 6.93 µM
